Results published in ChEMBL document CHEMBL5143733, “Discovery of (E)-3-(3-((2-Cyano-4'-dimethylaminobiphenyl-4-ylmethyl)cyclohexanecarbonylamino)-5-fluorophenyl)acrylic Acid Methyl Ester, an Intestine-Specific, FXR Partial Agonist for the Treatment of Nonalcoholic Steatohepatitis” (J Med Chem, 2022).
Activity calls are given as the source filed them. The calls are words filed in the database; no cut-off is given here.

Legend:
[1] = Toxicity in CDAHFD-induced nonalcoholic steatohepatitis C57BL/6J mouse model assessed as change in amount of food intake at 80 mg/kg, po administered daily for 4 weeks; assay type: organism-based; conditions: in vivo, 672 h
[2] = molecular target: T1, Bile acid receptor (Mus musculus) (UniProt Q60641); test: In vivo activation of FXR in CDAHFD-induced nonalcoholic steatohepatitis C57BL/6J mouse model assessed as induction of FGF15 gene expression at 80 mg/kg, po administered daily for 4 weeks; assay type: functional, organism-based
T1 sequence (whole entry): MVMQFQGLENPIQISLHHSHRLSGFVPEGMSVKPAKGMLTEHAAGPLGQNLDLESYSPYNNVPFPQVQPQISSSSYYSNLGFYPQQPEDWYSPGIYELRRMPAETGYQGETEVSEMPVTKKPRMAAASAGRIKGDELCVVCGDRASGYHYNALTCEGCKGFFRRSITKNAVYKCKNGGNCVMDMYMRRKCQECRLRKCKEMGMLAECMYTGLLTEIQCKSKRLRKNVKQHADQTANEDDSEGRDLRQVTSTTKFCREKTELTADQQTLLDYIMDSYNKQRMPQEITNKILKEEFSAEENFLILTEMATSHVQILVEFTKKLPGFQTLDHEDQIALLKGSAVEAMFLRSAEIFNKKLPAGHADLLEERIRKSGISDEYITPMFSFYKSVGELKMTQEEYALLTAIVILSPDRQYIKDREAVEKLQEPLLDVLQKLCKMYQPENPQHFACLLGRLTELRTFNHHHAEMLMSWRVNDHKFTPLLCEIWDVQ

[3] = molecular target: T1, Bile acid receptor (Mus musculus); test: In vivo activation of FXR in CDAHFD-induced nonalcoholic steatohepatitis C57BL/6J mouse model assessed as induction of OST-alpha gene expression at 80 mg/kg, po administered daily for 4 weeks; assay type: functional, organism-based
[4] = molecular target: T1, Bile acid receptor (Mus musculus); test: In vivo activation of FXR in CDAHFD-induced nonalcoholic steatohepatitis C57BL/6J mouse model assessed as induction of SHP gene expression at 80 mg/kg, po administered daily for 4 weeks; assay type: functional, organism-based
[5] = Toxicity in CDAHFD-induced nonalcoholic steatohepatitis C57BL/6J mouse model assessed as change in body weight at 80 mg/kg, po administered daily for 4 weeks; assay type: organism-based; conditions: in vivo, 672 h
[6] = molecular target: T1, Bile acid receptor (Mus musculus); test: In vivo activation of FXR in […]-induced nonalcoholic steatohepatitis C57BL/6J mouse model assessed as improved glucose tolerance measured up to 120 mins by glucose tolerance test; assay type: functional
[7] = molecular target: T1, Bile acid receptor (Mus musculus); test: In vivo activation of FXR in CDAHFD-induced nonalcoholic steatohepatitis C57BL/6J mouse model assessed as induction of SHP gene expression in liver at 80 mg/kg, po administered daily for 4 weeks; assay type: functional, organism-based
[8] = Toxicity in CDAHFD-induced nonalcoholic steatohepatitis C57BL/6J mouse model assessed as increase in liver wet weight at 80 mg/kg, po administered daily for 4 weeks […]; assay type: organism-based; conditions: in vivo, 672 h
[9] = molecular target: T1, Bile acid receptor (Mus musculus); test: In vivo activation of FXR in CDAHFD-induced nonalcoholic steatohepatitis C57BL/6J mouse model assessed as induction of IBABP gene expression at 80 mg/kg, po administered daily for 4 weeks; assay type: functional, organism-based
[10] = molecular target: T1, Bile acid receptor (Mus musculus); test: In vivo activation of FXR in CDAHFD-induced nonalcoholic steatohepatitis C57BL/6J mouse model assessed as reduction in liver fibrosis at 80 mg/kg, po administered daily for 4 weeks by picrosirius red staining method; assay type: functional, organism-based
[11] = molecular target: Oxysterols receptor LXR-beta (Homo sapiens) (UniProt P55055); test: Agonist activity at human LXR-beta expressed in CHO-K1 cells assessed as maximum relative efficacy at 100 uM by PathHunter assay relative to TO901317; assay type: cell-based
[12] = molecular target: Peroxisome proliferator-activated receptor gamma (Homo sapiens) (UniProt P37231); test: Agonist activity at human PPAR-gamma expressed in CHO-K1 cells assessed as maximum relative efficacy at 100 uM by PathHunter assay relative to troglitazone; assay type: cell-based
Peroxisome proliferator-activated receptor gamma (Homo sapiens), sequence (P37231 whole entry): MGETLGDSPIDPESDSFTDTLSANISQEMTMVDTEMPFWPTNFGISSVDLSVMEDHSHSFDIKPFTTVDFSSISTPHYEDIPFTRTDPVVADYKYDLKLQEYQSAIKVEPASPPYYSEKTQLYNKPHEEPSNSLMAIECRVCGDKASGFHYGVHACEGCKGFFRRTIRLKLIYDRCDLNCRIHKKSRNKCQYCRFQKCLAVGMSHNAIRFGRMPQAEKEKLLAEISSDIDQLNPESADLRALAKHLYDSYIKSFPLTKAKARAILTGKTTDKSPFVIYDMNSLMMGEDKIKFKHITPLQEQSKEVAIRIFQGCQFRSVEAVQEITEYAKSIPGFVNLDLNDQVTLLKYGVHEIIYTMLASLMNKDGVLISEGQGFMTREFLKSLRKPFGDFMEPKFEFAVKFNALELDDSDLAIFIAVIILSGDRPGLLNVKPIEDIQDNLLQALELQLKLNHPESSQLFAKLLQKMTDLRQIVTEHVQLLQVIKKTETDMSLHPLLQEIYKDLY

[13] = molecular target: Peroxisome proliferator-activated receptor alpha (Homo sapiens) (UniProt Q07869); test: Agonist activity at human PPAR-alpha expressed in CHO-K1 cells assessed as maximum relative efficacy at 100 uM by PathHunter assay relative to GW7647; assay type: cell-based
[14] = molecular target: Retinoic acid receptor RXR-alpha (Homo sapiens) (UniProt P19793); test: Agonist activity at human RXR-alpha expressed in U2OS cells assessed as maximum relative efficacy at 100 uM by PathHunter assay relative to 9-cis-retinoic acid; assay type: cell-based
Retinoic acid receptor RXR-alpha (Homo sapiens), sequence (P19793 whole entry): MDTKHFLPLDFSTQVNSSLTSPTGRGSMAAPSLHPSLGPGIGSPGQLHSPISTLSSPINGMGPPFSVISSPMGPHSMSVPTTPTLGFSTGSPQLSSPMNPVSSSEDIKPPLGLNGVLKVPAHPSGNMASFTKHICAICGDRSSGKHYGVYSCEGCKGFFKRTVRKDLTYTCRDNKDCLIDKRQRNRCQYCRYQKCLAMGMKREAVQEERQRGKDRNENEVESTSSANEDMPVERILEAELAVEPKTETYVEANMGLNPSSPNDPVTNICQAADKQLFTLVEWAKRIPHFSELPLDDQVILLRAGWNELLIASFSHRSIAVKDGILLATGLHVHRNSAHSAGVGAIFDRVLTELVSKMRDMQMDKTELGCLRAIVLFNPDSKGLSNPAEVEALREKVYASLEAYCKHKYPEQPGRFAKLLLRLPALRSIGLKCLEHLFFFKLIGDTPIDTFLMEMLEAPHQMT

[15] = molecular target: Oxysterols receptor LXR-alpha (Homo sapiens) (UniProt Q13133); test: Agonist activity at human LXR-alpha expressed in CHO-K1 cells assessed as maximum relative efficacy at 100 uM by PathHunter assay relative to TO901317; assay type: cell-based
Oxysterols receptor LXR-alpha (Homo sapiens), sequence (Q13133 whole entry): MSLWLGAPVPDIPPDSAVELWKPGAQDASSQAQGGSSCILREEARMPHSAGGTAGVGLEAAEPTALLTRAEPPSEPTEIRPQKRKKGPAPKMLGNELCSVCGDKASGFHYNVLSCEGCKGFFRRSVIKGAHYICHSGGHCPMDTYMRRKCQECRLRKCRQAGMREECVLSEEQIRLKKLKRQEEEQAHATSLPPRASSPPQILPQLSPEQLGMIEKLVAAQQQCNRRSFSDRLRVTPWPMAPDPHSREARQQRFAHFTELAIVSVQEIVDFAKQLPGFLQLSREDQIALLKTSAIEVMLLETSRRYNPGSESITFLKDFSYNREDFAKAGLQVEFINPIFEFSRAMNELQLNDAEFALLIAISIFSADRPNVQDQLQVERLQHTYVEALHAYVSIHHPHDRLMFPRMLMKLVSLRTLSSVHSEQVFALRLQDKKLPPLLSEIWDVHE

[16] = molecular target: Peroxisome proliferator-activated receptor delta (Homo sapiens) (UniProt Q03181); test: Agonist activity at human PPAR-delta expressed in CHO-K1 cells assessed as maximum relative efficacy at 100 uM by PathHunter assay relative to L-165,041; assay type: cell-based
Peroxisome proliferator-activated receptor delta (Homo sapiens), sequence (Q03181 whole entry): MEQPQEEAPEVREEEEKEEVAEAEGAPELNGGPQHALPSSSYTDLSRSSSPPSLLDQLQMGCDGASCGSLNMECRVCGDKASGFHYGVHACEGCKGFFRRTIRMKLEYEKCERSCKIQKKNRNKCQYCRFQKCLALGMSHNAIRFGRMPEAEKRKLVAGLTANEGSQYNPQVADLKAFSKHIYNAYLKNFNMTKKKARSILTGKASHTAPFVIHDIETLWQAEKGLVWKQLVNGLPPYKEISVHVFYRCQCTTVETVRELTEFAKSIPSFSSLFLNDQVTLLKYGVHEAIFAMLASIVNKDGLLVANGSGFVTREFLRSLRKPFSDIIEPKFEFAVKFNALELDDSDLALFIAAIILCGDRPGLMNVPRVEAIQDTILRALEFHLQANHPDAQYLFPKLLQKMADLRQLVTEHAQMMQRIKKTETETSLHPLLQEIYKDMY

[17] = molecular target: Progesterone receptor (Homo sapiens) (UniProt P06401); test: Agonist activity at human PR-alpha expressed in U2OS cells assessed as maximum relative efficacy at 100 uM by PathHunter assay relative to norgestrel; assay type: cell-based
Progesterone receptor (Homo sapiens), sequence (P06401 whole entry): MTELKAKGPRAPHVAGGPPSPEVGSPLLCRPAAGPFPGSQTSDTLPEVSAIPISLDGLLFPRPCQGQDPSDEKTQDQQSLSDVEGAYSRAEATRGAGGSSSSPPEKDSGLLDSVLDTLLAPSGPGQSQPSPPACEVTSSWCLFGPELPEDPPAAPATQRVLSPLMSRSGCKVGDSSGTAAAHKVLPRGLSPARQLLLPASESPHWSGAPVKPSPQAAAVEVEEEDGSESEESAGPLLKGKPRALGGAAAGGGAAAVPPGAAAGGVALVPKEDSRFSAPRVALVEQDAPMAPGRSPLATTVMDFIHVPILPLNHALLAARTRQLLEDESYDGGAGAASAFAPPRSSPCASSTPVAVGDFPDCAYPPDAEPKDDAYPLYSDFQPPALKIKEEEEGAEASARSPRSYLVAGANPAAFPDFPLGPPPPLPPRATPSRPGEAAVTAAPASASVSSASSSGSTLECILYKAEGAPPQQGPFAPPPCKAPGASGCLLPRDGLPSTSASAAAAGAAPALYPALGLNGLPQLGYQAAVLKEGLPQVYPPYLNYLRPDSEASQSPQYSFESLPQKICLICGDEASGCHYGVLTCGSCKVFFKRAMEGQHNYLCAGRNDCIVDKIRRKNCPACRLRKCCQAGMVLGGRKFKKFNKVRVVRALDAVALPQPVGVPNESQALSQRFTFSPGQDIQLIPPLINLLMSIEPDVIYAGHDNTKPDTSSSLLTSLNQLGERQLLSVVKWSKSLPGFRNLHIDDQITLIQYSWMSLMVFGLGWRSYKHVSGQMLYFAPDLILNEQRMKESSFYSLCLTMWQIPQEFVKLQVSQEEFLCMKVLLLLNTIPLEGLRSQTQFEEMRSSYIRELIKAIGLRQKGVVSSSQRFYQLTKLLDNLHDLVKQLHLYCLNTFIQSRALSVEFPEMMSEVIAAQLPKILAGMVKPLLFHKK

[18] = molecular target: Retinoic acid receptor alpha (Homo sapiens) (UniProt P10276); test: Agonist activity at human RAR-alpha expressed in CHO-K1 cells assessed as maximum relative efficacy at 100 uM by PathHunter assay relative to 9-cis-retinoic acid; assay type: cell-based
[19] = molecular target: Glucocorticoid receptor (Homo sapiens) (UniProt P04150); test: Agonist activity at human GR expressed in CHO-K1 cells assessed as maximum relative efficacy at 100 uM by PathHunter assay relative to dexamethasone; assay type: cell-based
Glucocorticoid receptor (Homo sapiens), sequence (P04150 whole entry): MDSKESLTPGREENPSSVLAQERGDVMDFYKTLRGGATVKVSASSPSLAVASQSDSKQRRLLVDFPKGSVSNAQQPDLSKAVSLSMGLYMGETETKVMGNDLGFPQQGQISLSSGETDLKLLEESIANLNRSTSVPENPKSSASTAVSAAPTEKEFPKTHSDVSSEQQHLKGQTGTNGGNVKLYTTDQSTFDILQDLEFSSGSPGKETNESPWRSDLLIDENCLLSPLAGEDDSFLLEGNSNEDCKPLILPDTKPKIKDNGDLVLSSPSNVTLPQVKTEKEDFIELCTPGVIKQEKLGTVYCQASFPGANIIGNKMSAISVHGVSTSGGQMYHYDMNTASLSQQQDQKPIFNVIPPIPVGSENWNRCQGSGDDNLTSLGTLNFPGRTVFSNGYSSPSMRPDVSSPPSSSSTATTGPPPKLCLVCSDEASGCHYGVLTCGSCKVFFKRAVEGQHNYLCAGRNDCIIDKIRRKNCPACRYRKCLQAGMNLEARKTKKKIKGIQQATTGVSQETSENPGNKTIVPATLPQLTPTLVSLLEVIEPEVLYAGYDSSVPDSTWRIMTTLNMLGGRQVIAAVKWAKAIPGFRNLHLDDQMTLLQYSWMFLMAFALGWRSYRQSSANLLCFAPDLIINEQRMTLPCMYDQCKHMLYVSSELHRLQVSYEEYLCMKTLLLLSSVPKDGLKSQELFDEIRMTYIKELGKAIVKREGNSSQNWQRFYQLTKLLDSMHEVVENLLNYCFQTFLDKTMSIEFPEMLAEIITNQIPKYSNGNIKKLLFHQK

[20] = molecular target: Progesterone receptor (Homo sapiens) (UniProt P06401); test: Agonist activity at human PR-beta expressed in U2OS cells assessed as maximum relative efficacy at 100 uM by PathHunter assay relative to norgestrel; assay type: cell-based
[21] = molecular target: Retinoic acid receptor beta (Homo sapiens) (UniProt P10826); test: Agonist activity at human RAR-beta expressed in CHO-K1 cells assessed as maximum relative efficacy at 100 uM by PathHunter assay relative to 9-cis-retinoic acid; assay type: cell-based
[22] = molecular target: Estrogen receptor (Homo sapiens) (UniProt P03372); test: Agonist activity at human ERalpha expressed in CHO-K1 cells assessed as maximum relative efficacy at 100 uM by PathHunter assay relative to 17-beta-estradiol; assay type: cell-based
[23] = molecular target: Thyroid hormone receptor alpha (Homo sapiens) (UniProt P10827); test: Agonist activity at human THR-alpha expressed in CHO-K1 cells assessed as maximum relative efficacy at 100 uM by PathHunter assay relative to control; assay type: cell-based
[24] = molecular target: Androgen receptor (Homo sapiens) (UniProt P10275); test: Agonist activity at human AR expressed in CHO-K1 cells assessed as maximum relative efficacy at 100 uM by PathHunter assay relative to 6alpha-fluorotestosterone; assay type: cell-based
Androgen receptor (Homo sapiens), sequence (P10275 whole entry): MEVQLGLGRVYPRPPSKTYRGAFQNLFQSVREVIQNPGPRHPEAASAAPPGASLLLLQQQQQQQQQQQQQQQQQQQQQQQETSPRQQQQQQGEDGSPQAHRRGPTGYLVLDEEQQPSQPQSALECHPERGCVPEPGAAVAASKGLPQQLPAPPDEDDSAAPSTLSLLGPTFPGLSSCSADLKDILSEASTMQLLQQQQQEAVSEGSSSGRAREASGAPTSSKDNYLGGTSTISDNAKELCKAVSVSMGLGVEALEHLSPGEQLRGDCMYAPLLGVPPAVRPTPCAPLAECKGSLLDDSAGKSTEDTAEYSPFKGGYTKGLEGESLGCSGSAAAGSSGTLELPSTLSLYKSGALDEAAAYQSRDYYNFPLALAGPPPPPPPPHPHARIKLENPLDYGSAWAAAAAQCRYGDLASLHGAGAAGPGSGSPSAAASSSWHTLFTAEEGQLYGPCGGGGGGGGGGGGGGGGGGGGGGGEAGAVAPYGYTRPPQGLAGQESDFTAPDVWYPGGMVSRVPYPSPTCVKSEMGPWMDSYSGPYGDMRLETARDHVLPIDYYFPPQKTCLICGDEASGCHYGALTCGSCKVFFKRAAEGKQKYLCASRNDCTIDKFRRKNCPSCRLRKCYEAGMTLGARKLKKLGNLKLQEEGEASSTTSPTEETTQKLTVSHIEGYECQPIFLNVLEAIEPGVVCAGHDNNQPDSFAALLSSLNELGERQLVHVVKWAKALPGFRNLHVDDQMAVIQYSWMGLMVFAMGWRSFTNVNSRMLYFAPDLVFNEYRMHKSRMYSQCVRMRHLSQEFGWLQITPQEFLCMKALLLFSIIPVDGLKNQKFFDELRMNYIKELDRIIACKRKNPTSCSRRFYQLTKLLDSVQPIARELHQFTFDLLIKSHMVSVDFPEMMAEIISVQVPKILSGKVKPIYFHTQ

[25] = molecular target: Mineralocorticoid receptor (Homo sapiens) (UniProt P08235); test: Agonist activity at human MR expressed in CHO-K1 cells assessed as maximum relative efficacy at 100 uM by PathHunter assay relative to aldosterone; assay type: cell-based
[26] = molecular target: Retinoic acid receptor RXR-beta (Homo sapiens) (UniProt P28702); test: Agonist activity at human RXR-beta expressed in U2OS cells assessed as maximum relative efficacy at 100 uM by PathHunter assay relative to 9-cis-retinoic acid; assay type: cell-based
Retinoic acid receptor RXR-beta (Homo sapiens), sequence (P28702 whole entry): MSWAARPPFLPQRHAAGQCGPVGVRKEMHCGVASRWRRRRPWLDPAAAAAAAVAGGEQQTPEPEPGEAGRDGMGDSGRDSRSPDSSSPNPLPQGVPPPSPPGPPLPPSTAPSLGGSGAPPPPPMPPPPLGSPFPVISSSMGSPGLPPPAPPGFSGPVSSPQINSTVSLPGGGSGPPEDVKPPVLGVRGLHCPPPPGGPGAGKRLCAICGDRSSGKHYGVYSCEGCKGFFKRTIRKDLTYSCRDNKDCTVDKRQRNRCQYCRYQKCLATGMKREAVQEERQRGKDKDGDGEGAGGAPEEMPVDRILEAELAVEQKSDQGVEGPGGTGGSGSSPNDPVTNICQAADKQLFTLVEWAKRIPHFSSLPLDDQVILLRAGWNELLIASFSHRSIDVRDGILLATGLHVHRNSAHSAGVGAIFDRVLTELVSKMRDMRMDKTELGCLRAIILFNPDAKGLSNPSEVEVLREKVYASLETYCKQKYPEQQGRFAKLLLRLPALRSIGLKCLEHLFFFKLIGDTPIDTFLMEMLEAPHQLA

[27] = molecular target: Thyroid hormone receptor beta (Homo sapiens) (UniProt P10828); test: Agonist activity at human THR-beta expressed in CHO-K1 cells assessed as maximum relative efficacy at 100 uM by PathHunter assay relative to triiodothyronine ine; assay type: cell-based
Bile acid receptor = molecular target: T2, Bile acid receptor (Homo sapiens, UniProt Q96RI1)
T2 sequence (Q96RI1 whole entry): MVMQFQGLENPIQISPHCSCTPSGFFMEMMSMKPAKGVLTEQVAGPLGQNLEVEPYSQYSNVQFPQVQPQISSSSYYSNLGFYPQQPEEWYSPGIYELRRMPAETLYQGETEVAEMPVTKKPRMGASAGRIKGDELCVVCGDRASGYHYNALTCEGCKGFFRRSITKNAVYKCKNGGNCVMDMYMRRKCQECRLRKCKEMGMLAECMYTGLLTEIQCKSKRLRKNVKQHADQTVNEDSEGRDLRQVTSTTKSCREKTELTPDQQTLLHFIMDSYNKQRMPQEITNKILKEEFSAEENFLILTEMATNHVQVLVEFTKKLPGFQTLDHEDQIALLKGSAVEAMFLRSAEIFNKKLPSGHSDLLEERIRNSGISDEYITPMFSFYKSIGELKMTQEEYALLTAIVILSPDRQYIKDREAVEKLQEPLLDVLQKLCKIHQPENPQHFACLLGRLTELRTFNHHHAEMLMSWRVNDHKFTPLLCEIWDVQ
Description: Agonist activity at human FXR transfected in CHO-K1 cells coexpressed with beta-galactosidase incubated for 3 to 16 hrs by PathHunter chemiluminescence based assay

[28] = Clearance in Sprague-Dawley rat at 5 mg/kg, iv measured up to 24 hrs by HPLC analysis; assay type: ADME, organism-based; conditions: in vivo
[29] = molecular target: T3, Bile acid receptor (Homo sapiens) (UniProt Q96RI1); test: Agonist activity at human FXR transfected in CHO-K1 cells coexpressed with beta-galactosidase at 10 uM incubated for 3 to 16 hrs by PathHunter chemiluminescence based assay relative to control; assay type: cell-based; conditions: time 3-16 hrs
T3 sequence (whole entry): T2 sequence (Q96RI1 whole entry)

[30] = AUClast in Sprague-Dawley rat at 5 mg/kg, iv measured up to 24 hrs by HPLC analysis; assay type: ADME, organism-based; parameters: time < 24 hrs, dose 5 mg/kg, route iv; conditions: Sprague-Dawley, in vivo
[31] = molecular target: T3, Bile acid receptor (Homo sapiens); test: Antagonist activity at human FXR expressed in CHO-K1 FXR cells coexpressed with beta-galactosidase at 3.3 uM preincubated for 60 mins followed by GW4064 addition and measured after 3 to 16 hrs by PathHunter chemiluminescence based assay relative to control; assay type: cell-based; parameters: scale not given: the % may be the effect or the level left; conditions: time 4-17 hrs
[32] = molecular target: T3, Bile acid receptor (Homo sapiens); test: Antagonist activity at human FXR expressed in CHO-K1 FXR cells coexpressed with beta-galactosidase at 10 uM preincubated for 60 mins followed by GW4064 addition and measured after 3 to 16 hrs by PathHunter chemiluminescence based assay relative to control; assay type: cell-based; parameters: scale not given: the % may be the effect or the level left; conditions: time 4-17 hrs
[33] = Volume of distribution at steady state in Sprague-Dawley rat at 5 mg/kg, iv measured up to 24 hrs by HPLC analysis; assay type: ADME, organism-based; conditions: in vivo, read-out: Vdss
[34] = Half life in Sprague-Dawley rat at 5 mg/kg, iv measured up to 24 hrs by HPLC analysis; assay type: ADME, organism-based; conditions: in vivo
[35] = molecular target: T3, Bile acid receptor (Homo sapiens); test: Antagonist activity at human FXR expressed in CHO-K1 FXR cells coexpressed with beta-galactosidase at 1.1 uM preincubated for 60 mins followed by GW4064 addition and measured after 3 to 16 hrs by PathHunter chemiluminescence based assay relative to control; assay type: cell-based; parameters: scale not given: the % may be the effect or the level left; conditions: time 4-17 hrs
[36] = Stability in Sprague-Dawley rat plasma at 80 mg/kg, po measured after 3 hrs by RP-HPLC analysis; assay type: ADME, organism-based; conditions: in vivo

## COC(=O)/C=C/c1cccc(N(Cc2ccc(-c3ccc(N(C)C)cc3)cc2)C(=O)C2CCCCC2)c1 [FEXARAMINE]
[1]
  Activity: Non-Toxic
[2]
  Activity: Active
[3]
  Activity: Active
[4]
  Activity: Active
[5]
  Activity: Non-Toxic
[6]
  Activity: Active
[7]
  Activity: Active
[8]
  Activity: Non-Toxic
[9]
  Activity: Active
[10]
  Activity: Active

## COC(=O)/C=C/c1cccc(N(Cc2ccc(-c3ccc(N(C)C)cc3)c(C#N)c2)C(=O)C2CCCCC2)c1
[11]
  Emax: 3%
[12]
  Emax: 2%
[13]
  Emax: 0%
[14]
  Emax: -2%
[15]
  Emax: 0%
[16]
  Emax: -3%
[17]
  Emax: -1%
[18]
  Emax: -3%
[19]
  Emax: 0%
[20]
  Emax: 0%
[21]
  Emax: -11%
[22]
  Emax: 1%
[23]
  Emax: -1%
[24]
  Emax: -2%
[25]
  Emax: 0%
[26]
  Emax: -4%
[27]
  Emax: 1%

## COC(=O)/C=C/c1cccc(N(Cc2ccc3c(c2)CCc2cc(N(C)C)ccc2-3)C(=O)C2CCCCC2)c1
Bile acid receptor
  EC50: > 10000 nM

## COC(=O)/C=C/c1cccc(N(Cc2ccc3c(ccc4cc(N(C)C)ccc43)c2)C(=O)C2CCCCC2)c1
Bile acid receptor
  EC50: > 10000 nM

## CN(C)c1ccc(-c2ccc(CN(C(=O)C3CCCCC3)c3cc(F)cc(/C=C/C(=O)O)c3)cc2C#N)cc1
[28]
  clearance: 70 mL/min/kg
[29]
  Activity: 0%
[30]
  AUC(0-t) at 24 h: 1200 ng·h/mL
[31]
  Activity: 7%
[32]
  Activity: 26%
[33]
  Vd: 1.4 L/kg
[34]
  half-life: 14.4 min
[35]
  Activity: 6%
[36]
  Stability: Unstable

## COc1cccc(Cn2cc(C(=O)Nc3ccc(C)c(S(=O)(=O)N4CCOCC4)c3)c(-c3ccc(C)cc3)n2)c1
[32]; filed as antagonist
  Activity: 96%

## CC(C)OC(=O)/C=C/c1cccc(N(Cc2ccc(-c3ccc(N(C)C)cc3)c(C#N)c2)C(=O)C2CCCCC2)c1F
Bile acid receptor
  EC50: 900 nM

## CN(C)c1ccc(-c2ccc(CN(C(=O)C3CCCCC3)c3cccc(/C=C/C(=O)OCF)c3)cc2C#N)cc1
Bile acid receptor
  EC50: 2600 nM
